Measured values as given in patent publication US20210115104A1, “AMYLIN ANALOGUES” (Zealand Pharma A/S, priority 2015, published 2021).
pEC50: −log10 of the molar value. *1 amine or outer side, *2 acyl side, *3 side chain or, on linkers, in order; H or OH if unused. Where a SMILES comes first, the peptide text is derived from it. Bridges are numbered along the chain shown (N, C = ends). [ ]: non-standard residue; d: D form. The star is where a group is joined. C20 diacid = O=C(O)CCCCCCCCCCCCCCCCCCC(=O)*; γGlu = O=C(O)[C@H](CCC(=O)[*:2])N[*:1]; Hyp = O=C(O)[C@@H]1C[C@@H](O)CN1; NMeI = CC[C@H](C)[C@H](NC)C(=O)O; Sar = CNCC(=O)O

Legend:
[1] = target: T1, human calcitonin receptor (hCTR2) (Homo sapiens, UniProt P30988); assay: hCTR2 cAMP assay (AlphaScreen) in COS7 cells; assay type: cell-based; conditions: cAMP induction, COS7 cells expressing hCTR2; Table 1; read-out: hCTR2 EC50
T1 construct: expressed in transfected cells
T1 sequence (P30988 25-474): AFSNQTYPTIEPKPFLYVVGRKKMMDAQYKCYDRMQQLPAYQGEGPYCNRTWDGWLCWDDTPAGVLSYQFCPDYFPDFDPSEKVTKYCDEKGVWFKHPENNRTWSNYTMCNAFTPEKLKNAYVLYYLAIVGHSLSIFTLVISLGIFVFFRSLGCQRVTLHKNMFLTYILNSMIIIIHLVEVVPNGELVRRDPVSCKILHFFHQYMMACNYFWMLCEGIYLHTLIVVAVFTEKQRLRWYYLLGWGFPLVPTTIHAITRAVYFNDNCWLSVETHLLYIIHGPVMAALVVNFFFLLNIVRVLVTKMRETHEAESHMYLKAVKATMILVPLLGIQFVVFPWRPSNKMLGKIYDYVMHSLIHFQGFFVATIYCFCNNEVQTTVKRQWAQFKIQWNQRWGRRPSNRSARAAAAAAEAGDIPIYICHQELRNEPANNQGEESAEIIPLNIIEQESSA
Text: The cell line COS7, originating from African Green Monkey kidney fibroblast cells, was used for establishment of the stable cell lines described below. The COS7 cellular background was used due to it being RAMP naïve, and as such it provides the best available system for testing of the monomeric hCTR and different heterodimeric amylin receptor subtypes functionally generated by introduction of the individual RAMPs.
A cell line expressing the human calcitonin receptor (hCTR2) was generated in the COS7 cellular background as stable clones. In brief, hCTR2 (GI: 4502547) was amplified by PCR using primers encoding terminal restriction sites for subcloning. The 5′-end primers additionally encoded a near Kozak consensus sequence to ensure efficient translation. The fidelity of the DNA encoding the receptor was confirmed by DNA sequencing. The PCR products encoding the receptor were subcloned into a mammalian expression vector containing a neomycin (G418) resistance marker. The mammalian expression vector encoding the receptor was transfected into COS7 cells by a standard liposome transfection method. 48 hours post-transfection, cells were seeded for limited dilution cloning and selected with 1 mg/ml G418 in the culture medium. After 3 weeks, surviving colonies of hCTR2-expressing cells were picked, propagated and tested in the amylin efficacy assay as described in Example 3 below. One hCTR2-expressing clone was chosen for compound profiling.
In vitro activity of test peptides at the hCTR2 and hAMYR3 receptors was assessed by measuring the induction of cAMP following stimulation of the receptor using the AlphaScreen® cAMP Assay kit from Perkin-Elmer.
Briefly, COS7 cells expressing hCTR2 (see Example 2, above) were seeded at 30-40,000 cells per well in 96-well microtiter plates coated with 0.01% poly-L-lysine, and grown for 1 day in culture in 100 μl growth medium [DMEM, 10% FCS, Penicillin (100 IU/ml), Streptomycin (100 μg/ml)]. On the day of analysis, growth medium was removed and the cells were washed once with 200 μl Tyrode buffer [Tyrode's Salts (9.6 g/I), 10 mM HEPES, pH 7.4]. Cells were incubated in 100 μl Tyrode buffer containing increasing concentrations of test peptides, 100 µM IBMX and 0.1% casein for 15 min at 37° C. The reaction was stopped by carefully decanting off the compound/buffer medium and replacing it with lysis/detection buffer (80 μl 0.1% w/v BSA, 5 mM HEPES, 0.3% v/v Tween-20 in deionized water). After incubation at room temperature for 10 min., the cAMP content of the resulting cell lysate was estimated according to the AlphaScreen® cAMP Assay manufacturer's instructions. EC50 values were estimated by computer-aided curve fitting using the 4-parameter logistic (4PL) non-linear model.

[2] = Assessment of physical stability (Thioflavin T fibrillation); assay type: physicochemical; design: key: FND = fibrillation not detected; FD = fibrillation detected; conditions: 1 mg/ml, 40° C., ThT; for Fibrillation pH 4.0 (Ac): 50 mM acetate buffer pH 4.0, 96 hours; for Fibrillation pH 7.0 (His): 50 mM histidine buffer pH 7.0, 96 hours; for Fibrillation pH 7.0 (Phos.): 50 mM phosphate buffer pH 7.0, 96 hours
Summary of the method: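 1 mg/ml peptide with 40 μM ThT in 50 mM phosphate pH 7.0, 50 mM histidine pH 7.0 or 50 mM acetate pH 4.0, in triplicate. Fluorescence read every 10 min after 300 s agitation over 96 h at 40 °C. Lag-time (h) is the intersection of linear fits to stable and growth phases.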

[3] = Assessment of chemical stability (RP-HPLC normalized purity); assay type: physicochemical; conditions: 7 days, 40° C., Table 1; for Normalized purity after 7 days, 40° C., pH 4: pH 4, 0.2 mg/ml; for Normalized purity after 7 days, 40° C., pH 6: pH 6, 0.2 mg/ml; for Normalized purity after 7 days, 40° C., pH 7.5: pH 7.5, 0.2 mg/ml; for Normalized purity after 7 days, 40° C., pH 9: pH 9, 0.2 mg/ml
Summary of the method: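 Peptides at 0.2 mg/ml in water adjusted to pH 4, 6, 7.5 or 9, incubated at 40° C for 7 days. Main-peak area-% by RP-HPLC (C8 ammonium formate or C18 TFA gradient, UV 220 nm), normalized to T=0 as 100.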

Row | pEC50 [1] | Fibrillation pH 4.0 (Ac) [2] | Fibrillation pH 7.0 (His) [2] | Fibrillation pH 7.0 (Phos.) [2] | Normalized purity after 7 days, 40° C., pH 4 [3] | Normalized purity after 7 days, 40° C., pH 6 [3] | Normalized purity after 7 days, 40° C., pH 7.5 [3] | Normalized purity after 7 days, 40° C., pH 9 [3] | SMILES
1 | 10.14 | FD | FD | FND | A (A = >90%) | A (A = >90%) | A (A = >90%) | B (B = 70-90%) | CC[C@H](C)[C@@H](C(=O)N[C@@H](CC(C)C)C(=O)N[C@@H](CO)C(=O)N[C@@H](CO)C(=O)N[C@H](C(=O)N[C@@H](CCC(=O)O)C(=O)N[C@H](C(=O)NCC(=O)N[C@@H](CO)C(=O)N[C@@H](CC(N)=O)C(=O)N[C@H](C(=O)N1CCC[C@H]1C(N)=O)[C@@H](C)O)C(C)C)[C@@H](C)O)N(C)C(=O)[C@H](C)NC(=O)CN(C)C(=O)[C@H](Cc1ccccc1)NC(=O)[C@H](CO)NC(=O)[C@H](CO)NC(=O)[C@H](CCCNC(=N)N)NC(=O)[C@H](Cc1c[nH]cn1)NC(=O)[C@H](CC(C)C)NC(=O)[C@H](Cc1ccccc1)NC(=O)[C@H](Cc1c[nH]cn1)NC(=O)[C@H](C)NC(=O)[C@H](CC(C)C)NC(=O)[C@H](CCCNC(=N)N)NC(=O)[C@H](CCC(N)=O)NC(=O)[C@@H](NC(=O)[C@H](C)NC(=O)[C@@H]1CSSC[C@H](NC(=O)[C@H](CCCNC(=N)N)NC(=O)CC[C@H](NC(=O)CCCCCCCCCCCCCCCCCCC(=O)O)C(=O)O)C(=O)N[C@@H](CC(N)=O)C(=O)N[C@@H]([C@@H](C)O)C(=O)N[C@@H](C)C(=O)N[C@@H]([C@@H](C)O)C(=O)N1)[C@@H](C)O [Compound 16, [19CD]-isoGlu-R-C( )-NTAT-C( )-ATQRLAHFLHRSSF-Gly(Me)-A-Ile(Me)-LSSTEVGSNTP-NH2] ({C20 diacid-γGlu}-RCNTATCATQRLAHFLHRSSF[Sar]A[NMeI]LSSTEVGSNTP-NH2; disulfide 2-7)
2 | 10.30 | FND | FD | FND | A (A = >90%) | A (A = >90%) | B (B = 70-90%) | B (B = 70-90%) | CC[C@H](C)[C@@H](C(=O)N[C@@H](CC(C)C)C(=O)N[C@@H](CO)C(=O)N[C@@H](CO)C(=O)N[C@H](C(=O)N[C@@H](CCC(=O)O)C(=O)N[C@H](C(=O)NCC(=O)N[C@@H](CO)C(=O)N[C@@H](CC(N)=O)C(=O)N[C@H](C(=O)N1C[C@H](O)C[C@H]1C(N)=O)[C@@H](C)O)C(C)C)[C@@H](C)O)N(C)C(=O)[C@H](C)NC(=O)CN(C)C(=O)[C@H](Cc1ccccc1)NC(=O)[C@H](CO)NC(=O)[C@H](CO)NC(=O)[C@H](CCCNC(=N)N)NC(=O)[C@H](CCC(N)=O)NC(=O)[C@H](CC(C)C)NC(=O)[C@H](Cc1ccccc1)NC(=O)[C@H](Cc1c[nH]cn1)NC(=O)[C@H](C)NC(=O)[C@H](CC(C)C)NC(=O)[C@H](CCCNC(=N)N)NC(=O)[C@H](CCC(N)=O)NC(=O)[C@@H](NC(=O)[C@H](C)NC(=O)[C@@H]1CSSC[C@H](NC(=O)[C@H](CCCNC(=N)N)NC(=O)CC[C@H](NC(=O)CCCCCCCCCCCCCCCCCCC(=O)O)C(=O)O)C(=O)N[C@@H](CC(N)=O)C(=O)N[C@@H]([C@@H](C)O)C(=O)N[C@@H](C)C(=O)N[C@@H]([C@@H](C)O)C(=O)N1)[C@@H](C)O [Compound 58, [19CD]-isoGlu-R-C( )-NTAT-C( )-ATQRLAHFLQRSSF-Gly(Me)-A-Ile(Me)-LSSTEVGSNT-Hyp-NH2] ({C20 diacid-γGlu}-RCNTATCATQRLAHFLQRSSF[Sar]A[NMeI]LSSTEVGSNT[Hyp]-NH2; disulfide 2-7)
3 | 9.80 | FND | FND | FND | A (A = >90%) | A (A = >90%) | B (B = 70-90%) | B (B = 70-90%) | CC[C@H](C)[C@@H](C(=O)N[C@@H](CC(C)C)C(=O)N[C@@H](CO)C(=O)N[C@@H](CO)C(=O)N[C@H](C(=O)N[C@@H](CCC(=O)O)C(=O)N[C@H](C(=O)NCC(=O)N[C@@H](CO)C(=O)N[C@@H](CC(N)=O)C(=O)N[C@H](C(=O)N1C[C@H](O)C[C@H]1C(N)=O)[C@@H](C)O)C(C)C)[C@@H](C)O)N(C)C(=O)[C@H](C)NC(=O)CN(C)C(=O)[C@H](Cc1ccccc1)NC(=O)[C@H](CCCNC(=N)N)NC(=O)[C@H](CCC(N)=O)NC(=O)[C@H](CC(C)C)NC(=O)[C@H](Cc1ccccc1)NC(=O)[C@H](Cc1c[nH]cn1)NC(=O)[C@H](C)NC(=O)[C@H](CC(C)C)NC(=O)[C@H](CCCNC(=N)N)NC(=O)[C@H](CCC(=O)O)NC(=O)[C@@H](NC(=O)[C@H](C)NC(=O)[C@@H]1CSSC[C@H](NC(=O)[C@H](CCCNC(=N)N)NC(=O)CC[C@H](NC(=O)CCCCCCCCCCCCCCCCCCC(=O)O)C(=O)O)C(=O)NCC(=O)N[C@@H]([C@@H](C)O)C(=O)N[C@@H](C)C(=O)N[C@@H]([C@@H](C)O)C(=O)N1)[C@@H](C)O [Compound 77, [19CD]-isoGlu-R-C( )-GTAT-C( )-ATERLAHFLQRF-Gly(Me)-A-Ile(Me)-LSSTEVGSNT-Hyp-NH2] ({C20 diacid-γGlu}-RCGTATCATERLAHFLQRF[Sar]A[NMeI]LSSTEVGSNT[Hyp]-NH2; disulfide 2-7)
4 | 10.22 | FND | FND | FND | A (A = >90%) | A (A = >90%) | A (A = >90%) | A (A = >90%) | CC[C@H](C)[C@@H](C(=O)N[C@@H](CC(C)C)C(=O)N[C@@H](CO)C(=O)N[C@@H](CO)C(=O)N[C@H](C(=O)N[C@@H](CCC(=O)O)C(=O)N[C@H](C(=O)NCC(=O)N[C@@H](CO)C(=O)N[C@@H](CC(N)=O)C(=O)N[C@H](C(=O)N1C[C@H](O)C[C@H]1C(N)=O)[C@@H](C)O)C(C)C)[C@@H](C)O)N(C)C(=O)[C@H](C)NC(=O)CN(C)C(=O)[C@H](Cc1ccccc1)NC(=O)[C@H](CO)NC(=O)[C@H](CO)NC(=O)[C@H](CCCNC(=N)N)NC(=O)[C@H](CCC(N)=O)NC(=O)[C@H](CC(C)C)NC(=O)[C@H](Cc1ccccc1)NC(=O)[C@H](Cc1c[nH]cn1)NC(=O)[C@H](C)NC(=O)[C@H](CC(C)C)NC(=O)[C@H](CCCNC(=N)N)NC(=O)[C@H](CC(=O)O)NC(=O)[C@@H](NC(=O)[C@H](C)NC(=O)[C@@H]1CSSC[C@H](NC(=O)[C@H](CCCNC(=N)N)NC(=O)CC[C@H](NC(=O)CCCCCCCCCCCCCCCCCCC(=O)O)C(=O)O)C(=O)N[C@@H](CCC(N)=O)C(=O)N[C@@H]([C@@H](C)O)C(=O)N[C@@H](C)C(=O)N[C@@H]([C@@H](C)O)C(=O)N1)[C@@H](C)O [Compound 88, [19CD]-isoGlu-R-C( )-QTAT-C( )-ATDRLAHFLQRSSF-Gly(Me)-A-Ile(Me)-LSSTEVGSNT-Hyp-NH2] ({C20 diacid-γGlu}-RCQTATCATDRLAHFLQRSSF[Sar]A[NMeI]LSSTEVGSNT[Hyp]-NH2; disulfide 2-7)
